Results: publication PMC7178866, “In vitro inhibitory effects of ganoderic acid A on human liver cytochrome P450 enzymes” (Pharmaceutical Biology, 2020)

What was measured:
CYP2C9 = test system: T1, CYP2C9; test: Inhibition of CYP2C9 (diclofenac 4′-hydroxylation) in pooled human liver microsomes; type: in vitro ADME; conditions: GAA 100 μM; pooled HLM
T1 construct: from tissue; host or cells: human liver microsomes
Description: (§1) All incubations were performed in triplicate, and the mean values were utilized. The typical incubation systems contained 100 mM potassium phosphate buffer (pH 7.4), NADPH generating system (1 mM NADP^+, 10 mM glucose-6-phosphate, 1 U/mL of glucose-6-phosphate dehydrogenase, and 4 mM MgCl2), the appropriate concentration of HLMs, a corresponding probe substrate and hispidulin (or positive inhibitor for different probe reactions) in a final volume of 200 μL.
(§2) The concentration of GAA was 100 μM, and the positive inhibitor concentrations were as follows: 10 μM furafylline for CYP1A2, 1 μM ketoconazole for CYP3A4, 10 μM tranylcypromine for CYP2A6, 50 μM clomethiazole for CYP2E1, 10 μM quinidine for CYP2D6, 10 μM sulfaphenazole for CYP2C9, 50 μM tranylcypromine for CYP2C19, 5 μM montelukast for CYP2C8. Probe substrates, positive inhibitors (except for dextromethorphan and quinidine, which were dissolved in water) and GAA were dissolved in methanol, with a final concentration of 1% (v/v), and 1% neat methanol was added to the incubations without inhibitor. […] The instrument used in this study was Agilent 1260 series instrument with DAD and FLD detector, and the quantitative assay for the corresponding metabolites was performed as previously reported (Lang et al. [2017]; Zhang et al. [2017]). […]

CYP1A2 = test system: T2, CYP1A2; test: Inhibition of CYP1A2 (phenacetin O-deethylation) in pooled human liver microsomes; type: in vitro ADME; conditions: GAA 100 μM; pooled HLM
T2 construct: to investigate the effects of GAA on different CYP isoforms in HLM; from tissue; host or cells: human liver microsomes
Description: as §1, §2

CYP2D6 [1] = molecular target: T3, CYP2D6 (Homo sapiens, UniProt P10635); test: Time-dependent inhibition study, CYP2D6 in human liver microsomes; type: in vitro ADME; conditions: GAA 20 μM pre-incubated with HLMs and NADPH for 30 min
T3 construct: from tissue; host or cells: pooled human liver microsomes
T3 sequence (P10635 whole entry): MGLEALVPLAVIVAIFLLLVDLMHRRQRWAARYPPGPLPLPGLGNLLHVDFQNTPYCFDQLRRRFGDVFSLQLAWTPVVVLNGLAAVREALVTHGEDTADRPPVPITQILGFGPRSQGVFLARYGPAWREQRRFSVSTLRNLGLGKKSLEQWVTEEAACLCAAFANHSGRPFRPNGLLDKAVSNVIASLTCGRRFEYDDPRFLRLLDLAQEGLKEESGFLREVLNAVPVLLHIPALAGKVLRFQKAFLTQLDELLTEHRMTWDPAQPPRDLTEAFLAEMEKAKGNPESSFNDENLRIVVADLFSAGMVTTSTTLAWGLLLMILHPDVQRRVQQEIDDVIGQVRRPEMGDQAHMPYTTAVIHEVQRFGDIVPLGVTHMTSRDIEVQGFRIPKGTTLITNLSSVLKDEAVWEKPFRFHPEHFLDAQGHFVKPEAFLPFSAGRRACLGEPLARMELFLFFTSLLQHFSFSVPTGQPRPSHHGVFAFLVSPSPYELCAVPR
Description: (§3) To determine whether GAA could inhibit the activity of CYP3A4, 2D6, and 2E1 in a time-dependent manner, GAA (20 μM) was pre-incubated with HLMs (1 mg/mL) in the presence of an NADPH-generating system for 30 min at 37 °C. After incubation, an aliquot (20 μL) was transferred to another incubation tube (final volume 200 μL) containing an NADPH-generating system and probe substrates whose final concentrations were approximate to Km. Then, further incubations were performed to measure the residual activity. After being incubated for 10 and 30 min, the reactions were terminated by adding a 100 μL acetonitrile internal standard mix and then placed on ice; the corresponding metabolites were determined by HPLC.

[2] = parameters: method as in Teekachunhatean et al. [2012]; Tseng et al. [2014]; conditions: after oral administration of 3000 mg Lingzhi; ref Teekachunhatean et al. [2012]; Tseng et al. [2014]; cited from earlier work
CYP2A6 = test system: T4, CYP2A6; test: Inhibition of CYP2A6 (coumarin 7-hydroxylation) in pooled human liver microsomes; type: in vitro ADME; conditions: GAA 100 μM; pooled HLM
T4 construct: from tissue; host or cells: human liver microsomes
Description: as §1, §2

CYP3A4 [3] = molecular target: T5, CYP3A4 (Homo sapiens, UniProt P08684); test: Time-dependent inhibition study, CYP3A4 in human liver microsomes; type: in vitro ADME
T5 construct: CYP3A4 catalyzed reactions (testosterone 6β-hydroxylation) in pooled HLM; from tissue; host or cells: pooled human liver microsomes
T5 sequence (P08684 whole entry): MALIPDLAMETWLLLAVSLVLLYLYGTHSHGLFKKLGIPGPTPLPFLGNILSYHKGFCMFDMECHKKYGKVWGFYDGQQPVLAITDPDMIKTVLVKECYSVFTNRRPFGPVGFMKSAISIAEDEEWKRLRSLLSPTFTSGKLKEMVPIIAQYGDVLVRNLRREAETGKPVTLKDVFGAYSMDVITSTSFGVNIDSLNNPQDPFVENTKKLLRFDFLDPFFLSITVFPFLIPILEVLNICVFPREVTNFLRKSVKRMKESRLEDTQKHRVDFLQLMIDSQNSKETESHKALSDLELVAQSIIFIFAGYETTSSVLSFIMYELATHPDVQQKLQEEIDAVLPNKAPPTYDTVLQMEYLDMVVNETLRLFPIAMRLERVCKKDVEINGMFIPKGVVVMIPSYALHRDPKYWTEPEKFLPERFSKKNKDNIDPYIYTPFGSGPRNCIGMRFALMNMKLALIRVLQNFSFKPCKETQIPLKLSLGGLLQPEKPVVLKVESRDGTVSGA
Description: as §3
To determine the KI and Kinact values for the inactivation of CYP3A4, the incubations were conducted using higher probe substrate concentrations (approximately 4-fold Km values) and various concentrations of GAA (0–50 μM) after different preincubation times (0–30 min), with a two-step incubation scheme, as described above.

CYP2E1 [4] = molecular target: T6, CYP2E1 (Homo sapiens, UniProt P05181); test: Time-dependent inhibition study, CYP2E1 in human liver microsomes; type: in vitro ADME; conditions: GAA 20 μM pre-incubated with HLMs and NADPH for 30 min
T6 construct: CYP2E1 catalyzed reactions (chlorzoxazone 6-hydroxylation) in pooled HLM; from tissue; host or cells: pooled human liver microsomes
T6 sequence (P05181 whole entry): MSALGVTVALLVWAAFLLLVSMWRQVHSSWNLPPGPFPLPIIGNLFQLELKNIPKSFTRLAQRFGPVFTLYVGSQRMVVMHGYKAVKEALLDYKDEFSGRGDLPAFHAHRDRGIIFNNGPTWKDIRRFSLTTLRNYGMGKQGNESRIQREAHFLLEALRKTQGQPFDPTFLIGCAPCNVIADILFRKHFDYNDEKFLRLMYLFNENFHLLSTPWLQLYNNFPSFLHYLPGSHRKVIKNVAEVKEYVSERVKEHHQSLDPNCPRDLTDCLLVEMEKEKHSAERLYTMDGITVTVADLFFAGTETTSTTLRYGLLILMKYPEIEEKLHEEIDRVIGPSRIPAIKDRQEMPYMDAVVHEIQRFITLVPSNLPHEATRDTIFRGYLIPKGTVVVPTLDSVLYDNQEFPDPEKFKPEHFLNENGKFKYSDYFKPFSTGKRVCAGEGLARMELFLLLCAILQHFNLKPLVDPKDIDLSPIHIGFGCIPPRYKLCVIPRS
Description: as §3

CYP2C19 = test system: T7, CYP2C19; test: Inhibition of CYP2C19 (S-mephenytoin 4-hydroxylation) in pooled human liver microsomes; type: in vitro ADME; conditions: GAA 100 μM; pooled HLM
T7 construct: from tissue; host or cells: human liver microsomes
Description: as §1, §2

CYP3A4 [5] = molecular target: T5, CYP3A4; test: Inhibition of CYP3A4 (testosterone 6β-hydroxylation) in pooled human liver microsomes; type: in vitro ADME
Description: as §1
(§4) The concentration of GAA was 100 μM, and the positive inhibitor concentrations were as follows: 10 μM furafylline for CYP1A2, 1 μM ketoconazole for CYP3A4, 10 μM tranylcypromine for CYP2A6, 50 μM clomethiazole for CYP2E1, 10 μM quinidine for CYP2D6, 10 μM sulfaphenazole for CYP2C9, 50 μM tranylcypromine for CYP2C19, 5 μM montelukast for CYP2C8. Probe substrates, positive inhibitors (except for dextromethorphan and quinidine, which were dissolved in water) and GAA were dissolved in methanol, with a final concentration of 1% (v/v), and 1% neat methanol was added to the incubations without inhibitor. There was a 3 min preincubation period (at 37 °C) before the reaction was initiated by adding an NADPH-generating system. The reaction was terminated by adding a 100 μL acetonitrile (10% trichloroacetic acid for CYP2A6) internal standard mix, and the solution was placed on ice. The mixture was centrifuged at 12,000 rpm for 10 min, and an aliquot (50 μL) of supernatant was transferred for HPLC analysis. The instrument used in this study was Agilent 1260 series instrument with DAD and FLD detector, and the quantitative assay for the corresponding metabolites was performed as previously reported (Lang et al. [2017]; Zhang et al. [2017]).
(§5) GAA (100 μM) was used to initially screen for its direct inhibitory effects towards different human CYP isoforms. […]
(§6) The enzyme kinetic parameters for the probe reaction were estimated from the best fit line, using least-squares linear regression of the inverse substrate concentration versus the inverse velocity (Lineweaver-Burk plots), and the mean values were used to calculate Vmax and Km. Inhibition data from the experiments that were conducted using multiple compound concentrations were represented by Dixon plots, and inhibition constant (Ki) values were calculated using non-linear regression according to the following equation: v=(VmaxS)/(Km(1+I/Ki)+S), where I is the concentration of the compound, Ki is the inhibition constant, S is the concentration of the substrate, and Km is the substrate concentration at half the maximum velocity (Vmax) of the reaction. The mechanism of the inhibition was assessed using the Lineweaver-Burk plots and the enzyme inhibition models. […]

CYP2E1 [6] = molecular target: T6, CYP2E1; test: Inhibition of CYP2E1 (chlorzoxazone 6-hydroxylation) in pooled human liver microsomes; type: in vitro ADME
Description: as §1, §4, §5, §6

CYP2D6 [7] = molecular target: T3, CYP2D6; test: Inhibition of CYP2D6 (dextromethorphan O-demethylation) in pooled human liver microsomes; type: in vitro ADME
Description: as §1, §4, §5, §6

CYP2C8 = test system: T8, CYP2C8; test: Inhibition of CYP2C8 (paclitaxel 6α-hydroxylation) in pooled human liver microsomes; type: in vitro ADME; conditions: GAA 100 μM; pooled HLM
T8 construct: from tissue; host or cells: human liver microsomes
Description: as §1, §2

C[C@H](CC(=O)C[C@@H](C)[C@H]1C[C@H](O)[C@@]2(C)C3=C(C(=O)C[C@]12C)[C@@]1(C)CCC(=O)C(C)(C)[C@@H]1C[C@@H]3O)C(=O)O [GAA, Ganoderic acid A]
effect on the activity of CYP2C9 (CYP2C9): did not exert effect | effect on the activity of CYP1A2 (CYP1A2): did not exert effect | time dependence of inhibition of CYP2D6 (CYP2D6 [1]): stable with incubation time | maximum concentration in plasma of GAA [2]: 2.24 to 10.99 ng/mL | effect on the activity of CYP2A6 (CYP2A6): did not exert effect | time dependence of inhibition of CYP3A4 (CYP3A4 [3]; GAA 20 μM pre-incubated with HLMs and NADPH for 30 min): time-dependent | CYP3A4 inactivated every minute (CYP3A4 [3]; concluded from the value of Kinact, GAA incubated with HLM): about 4.8% | time dependence of inhibition of CYP2E1 (CYP2E1 [4]): stable with incubation time | effect on the activity of CYP2C19 (CYP2C19): did not exert effect | IC50 (CYP3A4 [5]): 15 µM | Ki (CYP3A4 [5]): 7.16 µM | activity of CYP3A4, % of negative control (CYP3A4 [5]; GAA 100 μM, pooled HLM, testosterone 6β-hydroxylation, remaining activity): 14.6% | inhibition model of CYP3A4 (CYP3A4 [5]; Lineweaver-Burk plots): non-competitive | IC50 (CYP2E1 [6]): 28.3 µM | Ki (CYP2E1 [6]): 13.4 µM | activity of CYP2E1, % of negative control (CYP2E1 [6]; GAA 100 μM, pooled HLM, chlorzoxazone 6-hydroxylation, remaining activity): 27.7% | inhibition model of CYP2E1 (CYP2E1 [6]; Lineweaver-Burk plots): competitively | IC50 (CYP2D6 [7]): 21.8 µM | Ki (CYP2D6 [7]): 10.1 µM | activity of CYP2D6, % of negative control (CYP2D6 [7]; GAA 100 μM, pooled HLM, dextromethorphan O-demethylation, remaining activity): 18.2% | inhibition model of CYP2D6 (CYP2D6 [7]; Lineweaver-Burk plots): competitively | effect on the activity of CYP2C8 (CYP2C8): did not exert effect
